Results: patent US12637461B2, “Compounds for the activation of AMPK” (PFIZER INC., priority 2022, dated 2026)
pEC50: −log10 of the molar value.

Biological target: T1, human AMPK α2β2γ3 (Homo sapiens, UniProt O43741+P54646+Q9UGI9)
T1 construct: expressed in transfected cells; host or cells: HEK293AD cells, MaxCyte bulk electroporation
Experiment: Primary cellular assay: γ3 associated phospho-Thr172 AMPK detection (custom pAMPK Surefire AlphaLISA) in α2β2γ3 bulk transiently transfected HEK293 cells
Format: cell-based
Details: activation of human AMPK α2β2γ3 (γ3 pThr172 AMPK signal) in transiently transfected HEK293 cells, 20 minutes compound incubation; for pEC50: geometric mean EC50, read-out: Assay GMean EC50; for Assay GMean Asy. Max (%) / Emax: geometric mean of the asymptotic max; for Emax: 20 min, read-out: Assay GMean Asy. Max (%)
Protocol: Primary Cellular Assay—γ3 Associated Phospho-Thr172 AMPK Detection in α2β2γ3 Bulk Transiently Transfected HEK293 Cells
The cellular potencies of the compounds were evaluated using a custom pAMPK Surefire AlphaLISA designed to assess γ3 associated phospho-Thr172 AMPK and modulation by small molecules in AMPK α2β2γ3 transiently transfected HEK293 cells.
A pAMPK Surefire AlphaLISA (PE-ASLU-PAMPK) assay available through Perkin Elmer was modified to selectively assess γ3 pThr172 AMPK content (as opposed to total pThr172 AMPK) by labeling a γ3 antibody with a CaptSure™ tag and substituting it for the total α1c/α2 AMPK labeled antibodies in the kit. In the modified assay, the overall abundance of γ3 AMPK is recognized by the CaptSure γ3 antibody and the phosphorylated AMPK is recognized by biotinylated pThr172 antibody. Subsequent reactivity with streptavitin donor beads and anti CaptSure conjugated acceptor beads brings the molecules into close proximity. Upon excitation at 680 nm, the donor bead converts ambient oxygen to a more excited singlet state which reacts with the acceptor bead and emits light at 520 to 620 nm. The intensity of the signal is proportional to the level of γ3 associated pThr172 AMPK phosphorylation.
In short, AMPK-α2+β2+γ3 MaxCyte bulk-transfected HEK293AD cells were thawed in growth media (DMEM High glucose+10% FBS) in a collagen-coated T150 flask and the cells were allowed to adhere and grow overnight in a 37° C. incubator. The following day, the cells were harvested and resuspended in plating medium (DMEM Low glucose+10% FBS) at a concentration of 100,000 cells per mL and 50 μL of this cell suspension was added to all wells of a 384-well plate using a Multidrop Combi. The cells were allowed to adhere and grow for 2 days in a 37° C. incubator. On assay day, compounds were diluted in 100% dimethyl sulfoxide (DMSO) in a 11 dose, half log dilution scheme and spotted in the cell plates at 1000× the final concentration. Compound incubations were performed in plating media for 20 minutes. Cells were washed with PBS, lysed and the signal was generated by subsequent additions of RB1 reagent from the kit, 1:1000 CaptSure γ3 labeled antibody in 1× immunoassay buffer, Anti-CaptSure acceptor beads and Streptavitin donor beads at final concentration of […]. The γ3 pThr172 AMPK signal was developed using EnVision™ multilabel reader (Perkin Elmer) using Alphascreen settings. The fluorescence emission was used to calculate the % effect relative to the HPE (30 μM) and ZPE (DMSO). EC50 curves were generated with the ActivityBase software using the XLfit model 205 to determine EC50 and Emax values.
For screening purposes, bulk AMPK-α2+β2+γ3 MaxCyte bulk transfection into HEK293AD cells were generated to support SAR screening as follows.
HEK293AD cells were seeded into 10 flasks at 2.7×10^7 cells per flask. The following day 12 mL of Trypl E dissociation reagent were added to each flask to lift the cells and the cells were then spun at 300×g for 5 minutes. Cells were washed once in MaxCyte EP buffer and then resuspended in MaxCyte EP buffer at 1×10^8 cells per mL. For transfection, 500×10^6 cells in 500 μl MaxCyte EP buffer were placed in a CL1.1 Processing Assembly (electroporation cell) with 1 mg/mL ([…]) of each of the plasmids pcDNA3.1(+)-human AMPK alpha 2, pcDNA3.1(+)-human AMPK beta 2 and pcDNA3.1(+)-human AMPK gamma 3 and the electroporation was carried out on the MaxCyte STX using the HEK293 electroporation protocol. Following electroporation, cells were transferred to a T175 flask containing growth medium (DMEM High glucose+10% FBS) and allowed to recover for 25 minutes, then the cells were resuspended to final volume of 900 mL and distributed into 6XT175 flasks and allowed to adhere and grow overnight in a 37° C. incubator. […]

T1 sequence (P54646 whole entry): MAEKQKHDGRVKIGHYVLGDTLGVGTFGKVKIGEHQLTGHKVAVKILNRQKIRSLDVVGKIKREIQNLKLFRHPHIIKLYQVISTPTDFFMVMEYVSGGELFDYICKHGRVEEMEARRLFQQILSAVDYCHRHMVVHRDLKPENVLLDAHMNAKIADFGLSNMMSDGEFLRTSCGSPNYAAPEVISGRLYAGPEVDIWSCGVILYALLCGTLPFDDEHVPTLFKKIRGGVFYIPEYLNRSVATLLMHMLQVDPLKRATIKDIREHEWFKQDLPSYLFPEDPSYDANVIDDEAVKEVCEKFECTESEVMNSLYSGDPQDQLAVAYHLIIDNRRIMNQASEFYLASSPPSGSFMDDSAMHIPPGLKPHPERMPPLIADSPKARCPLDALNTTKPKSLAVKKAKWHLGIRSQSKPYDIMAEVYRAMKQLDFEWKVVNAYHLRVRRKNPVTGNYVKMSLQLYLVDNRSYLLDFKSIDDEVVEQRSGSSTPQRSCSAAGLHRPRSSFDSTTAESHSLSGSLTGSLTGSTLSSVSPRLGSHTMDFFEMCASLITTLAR
T1 sequence (O43741 whole entry): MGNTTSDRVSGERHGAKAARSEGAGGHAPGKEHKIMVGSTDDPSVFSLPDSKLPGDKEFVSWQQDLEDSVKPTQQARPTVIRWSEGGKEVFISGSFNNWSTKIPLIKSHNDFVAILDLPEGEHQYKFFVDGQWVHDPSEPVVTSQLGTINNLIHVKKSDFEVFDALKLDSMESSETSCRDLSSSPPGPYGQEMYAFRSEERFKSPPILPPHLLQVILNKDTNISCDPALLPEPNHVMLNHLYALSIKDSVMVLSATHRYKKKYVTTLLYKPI
T1 sequence (Q9UGI9 whole entry): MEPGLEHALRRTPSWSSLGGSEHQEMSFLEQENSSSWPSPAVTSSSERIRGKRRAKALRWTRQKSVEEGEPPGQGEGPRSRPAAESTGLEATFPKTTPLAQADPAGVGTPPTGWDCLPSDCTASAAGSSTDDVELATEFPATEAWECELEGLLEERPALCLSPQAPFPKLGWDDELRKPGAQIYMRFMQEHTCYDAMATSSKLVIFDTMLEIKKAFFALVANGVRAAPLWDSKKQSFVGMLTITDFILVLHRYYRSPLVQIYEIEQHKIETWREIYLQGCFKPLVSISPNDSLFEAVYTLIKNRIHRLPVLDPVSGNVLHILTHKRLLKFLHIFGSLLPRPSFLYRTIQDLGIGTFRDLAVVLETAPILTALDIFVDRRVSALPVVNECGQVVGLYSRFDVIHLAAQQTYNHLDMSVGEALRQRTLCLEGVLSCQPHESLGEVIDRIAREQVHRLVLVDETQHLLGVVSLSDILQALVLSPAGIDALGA

Which results are given for `Cn1cc(F)c(N2C[C@](C)(c3cccc(Cl)c3F)c3c(cnc(NC4CN(C(=O)C(C)(O)C5CC5)C4)c3F)C2=O)n1` (single isomer, unassigned) [Example 9]?
pEC50: < 7.25; Assay GMean Asy. Max (%): 118.8%

With `Cn1cc(F)c(N2C[C@](C)(c3cccc(Cl)c3F)c3c(cnc(NC4CN(C(=O)C(C)(O)C5CC5)C4)c3F)C2=O)n1` (single isomer, unassigned) [Example 10] as the molecule, how does the pEC50 read?
Its pEC50 is 7.67.

What about the “Assay GMean Asy. Max (%)” value of the same molecule?
Its value is 89.6%.

Which results are given for `C[C@]1(c2cccc(Cl)c2F)CN(c2ccc([C@H]3COCCN3)cn2)C(=O)c2cnc(NC3CN(C(=O)c4cccnn4)C3)c(F)c21` (single isomer, unassigned) [Example 16]?
Emax: 75.4%; pEC50: 6.12

With `C[C@]1(c2cccc(Cl)c2F)CN(c2ccc([C@@H]3COCCN3)cn2)C(=O)c2cnc(NC3CN(C(=O)c4cccnn4)C3)c(F)c21` (single isomer, unassigned) [Example 17] as the molecule, how does the Emax read?
The Emax was 120%.

What about the pEC50 of the same molecule?
The pEC50 was 6.84.

What does the source list for `Cn1cc(F)c(N2CC(C)(c3ccc(F)c(Cl)c3F)c3c(cnc(NC4CN(C(=O)[C@@H]5C[C@@H]5F)C4)c3F)C2=O)n1` (single isomer, unassigned) [Example 23]?
Emax: 91.4%; pEC50: 7.55

For `CN1CCC(C(=O)N2CC[C@@H](Nc3ncc4c(c3F)C(C)(c3cccc(Cl)c3F)CN(c3ncccc3F)C4=O)C2)CC1` (single isomer, unassigned) [Example 24], which Emax is on record?
The Emax was 139%.

And the pEC50?
The pEC50 was 7.10.

What does the source list for `Cn1cc(F)c(N2CC(C)(c3cccc(Cl)c3F)c3c(cnc(N[C@@H]4CCN(C(=O)N5C[C@@H]6C[C@H]5CO6)C4)c3F)C2=O)n1` (single isomer, unassigned) [Example 25]?
Emax: 52.2%; pEC50: 6.80

`CC1(c2cccc(Cl)c2F)CN(c2ncccc2F)C(=O)c2cnc(NC3CN(C(=O)CO)C3)nc21` (single isomer, unassigned) [Example 26, 8-(3-Chloro-2-fluorophenyl)-6-(3-fluoropyridin-2-yl)-2-{[1-(hydroxyacetyl)azetidin-3-yl]amino}-8-methyl-7,8-dihydropyrido[4,3-d]pyrimidin-5(6H)-one] was tested. Which Emax did it give?
Its Emax is 47.6%.

And the pEC50?
The pEC50 was 6.74.

`CC1(c2cccc(Cl)c2F)CN(c2ncccc2F)C(=O)c2cnc(NC3CN(C(=O)C4(O)CC4)C3)nc21` (single isomer, unassigned) [Example 27, 8-(3-Chloro-2-fluorophenyl)-6-(3-fluoropyridin-2-yl)-2-{[1-(1-hydroxycyclopropane-1-carbonyl)azetidin-3-yl]amino}-8-methyl-7,8-dihydropyrido[4,3-d]pyrimidin-5(6H)-one] was tested. Which Emax did it give?
The Emax was 174%.

And the pEC50?
Its pEC50 is 6.75.

How did the pEC50 turn out when `CC1(c2cccc(Cl)c2F)CN(c2ncccc2F)C(=O)c2cnc(NC3CN(C(=O)C4(O)CC4(C)C)C3)nc21` (single isomer, unassigned) [Example 28, 8-(3-Chloro-2-fluorophenyl)-6-(3-fluoropyridin-2-yl)-2-{[1-(1-hydroxy-2,2-dimethylcyclopropane-1-carbonyl)azetidin-3-yl]amino}-8-methyl-7,8-dihydropyrido[4,3-d]pyrimidin-5(6H)-one] was run?
Its pEC50 is 6.24.

What about the “Assay GMean Asy. Max (%)” value of the same molecule?
The value was 98.9%.

`CC1(c2cccc(Cl)c2F)CN(c2ncccc2F)C(=O)c2cnc(NC3CN(C(=O)C4(O)CC4(C)C)C3)nc21` (single isomer, unassigned) [Example 29, 8-(3-Chloro-2-fluorophenyl)-6-(3-fluoropyridin-2-yl)-2-{[1-(1-hydroxy-2,2-dimethylcyclopropane-1-carbonyl)azetidin-3-yl]amino}-8-methyl-7,8-dihydropyrido[4,3-d]pyrimidin-5(6H)-one] was tested. Which pEC50 did it give?
The pEC50 was 6.74.

And the “Assay GMean Asy. Max (%)” value?
The value was 216%.

Which results are given for `Cn1cc(F)c(N2CC(C)(c3cccc(Cl)c3F)c3nc(NC4CN(C(=O)[C@@H]5C[C@@H]5F)C4)ncc3C2=O)n1` (single isomer, unassigned) [Example 30]?
Emax: 178%; pEC50: 6.13

`CC1(c2cccc(Cl)c2F)CN(c2ccc(N)cn2)C(=O)c2cnc(NC3CN(C(=O)[C@@H]4C[C@@H]4F)C3)nc21` (single isomer, unassigned) [Example 31] was tested. Which Emax did it give?
The Emax was 110%.

And the pEC50?
The pEC50 was 6.66.

`CC1(c2cccc(Cl)c2F)CN(c2ncccc2F)C(=O)c2cnc(NC3CN(C(=O)N4C[C@H]5C[C@@H]4[C@@H](O)C5)C3)nc21` (single isomer, unassigned) [Example 32] was tested. Which Emax did it give?
Its Emax is 173%.

And the pEC50?
The pEC50 was 6.66.

For `CN(C(=O)CN1CC(Nc2ccc3c(c2F)C(C)(c2cccc(Cl)c2F)CN(c2nn(C)cc2F)C3=O)C1)C1CC1` (single isomer, unassigned) [Example 34, 2-(3-{[4-(3-Chloro-2-fluorophenyl)-5-fluoro-2-(4-fluoro-1-methyl-1H-pyrazol-3-yl)-4-methyl-1-oxo-1,2,3,4-tetrahydroisoquinolin-6-yl]amino}azetidin-1-yl)-N-cyclopropyl-N-methylacetamide], which Emax is on record?
The Emax was 208%.

And the pEC50?
The pEC50 was 7.50.

For `CC1(c2cccc(Cl)c2F)CN(c2ccc(CO)cn2)C(=O)c2ccc(NC3CN(C(=O)N4C[C@@H]5C[C@H]4CO5)C3)c(F)c21` (single isomer, unassigned) [Example 37], which Emax is on record?
The Emax was 163%.

And the pEC50?
Its pEC50 is 7.72.

How did the Emax turn out when `CN(C)c1nc(NC2CN(C(=O)C3(O)CC3)C2)nc2c1C(=O)N(c1ncccc1F)CC2(C)c1cccc(Cl)c1F` (single isomer, unassigned) [Example 38, 8-(3-Chloro-2-fluorophenyl)-4-(dimethylamino)-6-(3-fluoropyridin-2-yl)-2-{[1-(1-hydroxycyclopropane-1-carbonyl)azetidin-3-yl]amino}-8-methyl-7,8-dihydropyrido[4,3-d]pyrimidin-5(6H)-one] was run?
The Emax was 217%.

What about the pEC50 of the same molecule?
Its pEC50 is 6.84.

Which results are given for `Cn1cc(F)c(N2C[C@](C)(c3cccc(Cl)c3F)c3c(cnc(NC4CN(C(=O)C(O)C5CC5)C4)c3F)C2=O)n1` (single isomer, unassigned) [compound 42]?
Emax: 76.2%; pEC50: 7.23

With `Cn1cc(F)c(N2C[C@](C)(c3cccc(Cl)c3F)c3c(cnc(NC4CN(C(=O)C(O)C5CC5)C4)c3F)C2=O)n1` (single isomer, unassigned) [compound 43] as the molecule, how does the pEC50 read?
Its pEC50 is 6.76.

And the “Assay GMean Asy. Max (%)” value?
Its value is 77.4%.

What does the source list for `Cn1cc(F)c(N2C[C@](C)(c3cccc(Cl)c3F)c3c(cnc(NC4CN(C(=O)C(O)CC(F)(F)F)C4)c3F)C2=O)n1` (single isomer, unassigned) [compound 44]?
pEC50: 7.11; Assay GMean Asy. Max (%): 77.9%

Which results are given for `Cn1cc(F)c(N2C[C@](C)(c3cccc(Cl)c3F)c3c(cnc(NC4CN(C(=O)C(O)CC(F)(F)F)C4)c3F)C2=O)n1` (single isomer, unassigned) [compound 45]?
pEC50: 7.18; Assay GMean Asy. Max (%): 100%

Which results are given for `COCC(C)(O)C(=O)N1CC(Nc2ncc3c(c2F)C(C)(c2cccc(Cl)c2F)CN(c2nn(C)cc2F)C3=O)C1` (single isomer, unassigned) [compound 46]?
Emax: 111%; pEC50: 7.06

How did the pEC50 turn out when `COCC(C)(O)C(=O)N1CC(Nc2ncc3c(c2F)C(C)(c2cccc(Cl)c2F)CN(c2nn(C)cc2F)C3=O)C1` (single isomer, unassigned) [compound 47] was run?
Its pEC50 is 6.58.

What about the “Assay GMean Asy. Max (%)” value of the same molecule?
The value was 105%.
